How the values were obtained:
Assay in all cases: radiometric filter-binding kinase assay
PAK7 (human) = PAK7 (human) (UniProt Q9P286)
[1] = tested on: AKT1 (human), P31749 [S473D]
RPS6KA5 KD1 KD2 (human) = RPS6KA5 KD1 KD2 (human) (UniProt O75582)
IKBKE (human) = IKBKE (human) (UniProt Q14164)
EPHA2 (human) = EPHA2 (human) (UniProt P29317)
HIPK1 (human) = HIPK1 (human) (UniProt Q86Z02)
HIPK2 (human) = HIPK2 (human) (UniProt Q9H2X6)
LCK (mouse) = details: accession and sequence are those of the human protein
MAPK11 (human) = MAPK11 (human) (UniProt Q15759)
ROCK2 (rat) = details: accession and sequence are those of the human protein
MAPK13 (human) = MAPK13 (human) (UniProt O15264)
Sequence of MAPK13 (human) (O15264 whole entry, looked up): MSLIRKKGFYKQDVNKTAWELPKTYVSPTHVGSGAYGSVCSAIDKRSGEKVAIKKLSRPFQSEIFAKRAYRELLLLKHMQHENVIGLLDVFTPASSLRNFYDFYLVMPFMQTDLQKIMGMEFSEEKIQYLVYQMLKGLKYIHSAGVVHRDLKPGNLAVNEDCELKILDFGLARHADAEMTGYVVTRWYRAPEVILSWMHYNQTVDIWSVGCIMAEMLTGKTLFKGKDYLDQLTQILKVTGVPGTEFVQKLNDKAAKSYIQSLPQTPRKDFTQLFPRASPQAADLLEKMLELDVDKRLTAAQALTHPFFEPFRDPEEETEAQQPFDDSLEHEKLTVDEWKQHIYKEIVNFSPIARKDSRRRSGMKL

NUAK1 (human) = NUAK1 (human) (UniProt O60285)
PRKCZ (human) = PRKCZ (human) (UniProt Q05513)
DAPK1 (human) = DAPK1 (human) (UniProt P53355)
NEK6 (human) = NEK6 (human) (UniProt Q9HC98)
BTK (human) = BTK (human) (UniProt Q06187)
Sequence of BTK (human) (Q06187 whole entry, looked up): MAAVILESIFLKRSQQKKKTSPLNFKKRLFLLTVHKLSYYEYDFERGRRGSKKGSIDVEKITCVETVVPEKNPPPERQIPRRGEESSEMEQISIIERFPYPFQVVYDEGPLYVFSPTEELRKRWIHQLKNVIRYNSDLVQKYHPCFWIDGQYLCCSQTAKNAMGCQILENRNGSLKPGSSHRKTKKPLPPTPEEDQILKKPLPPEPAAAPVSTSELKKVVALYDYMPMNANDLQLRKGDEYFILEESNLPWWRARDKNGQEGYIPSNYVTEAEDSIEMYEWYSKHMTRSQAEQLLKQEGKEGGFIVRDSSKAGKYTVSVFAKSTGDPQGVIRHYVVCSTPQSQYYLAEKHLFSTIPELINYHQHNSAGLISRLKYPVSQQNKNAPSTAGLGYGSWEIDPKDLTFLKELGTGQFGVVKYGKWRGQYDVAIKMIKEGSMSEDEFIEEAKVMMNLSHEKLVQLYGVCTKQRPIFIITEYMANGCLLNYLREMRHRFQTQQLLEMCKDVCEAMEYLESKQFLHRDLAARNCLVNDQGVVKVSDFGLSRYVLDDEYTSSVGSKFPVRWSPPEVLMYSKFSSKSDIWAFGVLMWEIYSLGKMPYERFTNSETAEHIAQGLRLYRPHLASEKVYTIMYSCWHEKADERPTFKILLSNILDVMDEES

MST4 (human) = MST4 (human) (UniProt Q9P289)
TAOK1 (human) = TAOK1 (human) (UniProt Q7L7X3)
Sequence of TAOK1 (human) (Q7L7X3 whole entry, looked up): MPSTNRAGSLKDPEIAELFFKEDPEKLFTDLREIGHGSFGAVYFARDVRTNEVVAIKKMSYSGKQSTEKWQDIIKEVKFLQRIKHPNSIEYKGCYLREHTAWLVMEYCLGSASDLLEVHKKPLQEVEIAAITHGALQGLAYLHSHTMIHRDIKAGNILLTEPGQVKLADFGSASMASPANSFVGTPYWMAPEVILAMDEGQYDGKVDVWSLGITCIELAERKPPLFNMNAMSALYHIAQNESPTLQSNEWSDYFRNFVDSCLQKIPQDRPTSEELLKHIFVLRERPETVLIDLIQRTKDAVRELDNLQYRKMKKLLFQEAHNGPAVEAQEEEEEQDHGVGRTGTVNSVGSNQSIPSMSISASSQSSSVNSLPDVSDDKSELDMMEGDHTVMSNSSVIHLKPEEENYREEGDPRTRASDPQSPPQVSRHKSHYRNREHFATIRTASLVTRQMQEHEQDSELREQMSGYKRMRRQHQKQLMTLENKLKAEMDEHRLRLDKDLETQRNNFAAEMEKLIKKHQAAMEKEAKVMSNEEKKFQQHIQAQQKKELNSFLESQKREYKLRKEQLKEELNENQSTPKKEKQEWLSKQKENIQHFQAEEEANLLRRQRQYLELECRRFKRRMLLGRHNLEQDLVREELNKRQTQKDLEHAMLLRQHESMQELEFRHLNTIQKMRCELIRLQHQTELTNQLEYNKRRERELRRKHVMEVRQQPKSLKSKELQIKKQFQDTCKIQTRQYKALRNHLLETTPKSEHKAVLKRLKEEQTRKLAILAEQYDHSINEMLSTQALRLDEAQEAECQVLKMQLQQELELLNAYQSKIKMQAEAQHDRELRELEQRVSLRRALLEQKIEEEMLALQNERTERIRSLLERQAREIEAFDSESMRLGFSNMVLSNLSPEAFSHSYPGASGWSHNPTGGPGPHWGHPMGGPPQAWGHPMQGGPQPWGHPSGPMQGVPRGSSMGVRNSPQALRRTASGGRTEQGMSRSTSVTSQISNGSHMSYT

CaMK1 (human) = CaMK1 (human) (UniProt Q14012)
MAPK14 (human) = MAPK14 (human) (UniProt Q16539)
Sequence of MAPK14 (human) (Q16539 whole entry, looked up): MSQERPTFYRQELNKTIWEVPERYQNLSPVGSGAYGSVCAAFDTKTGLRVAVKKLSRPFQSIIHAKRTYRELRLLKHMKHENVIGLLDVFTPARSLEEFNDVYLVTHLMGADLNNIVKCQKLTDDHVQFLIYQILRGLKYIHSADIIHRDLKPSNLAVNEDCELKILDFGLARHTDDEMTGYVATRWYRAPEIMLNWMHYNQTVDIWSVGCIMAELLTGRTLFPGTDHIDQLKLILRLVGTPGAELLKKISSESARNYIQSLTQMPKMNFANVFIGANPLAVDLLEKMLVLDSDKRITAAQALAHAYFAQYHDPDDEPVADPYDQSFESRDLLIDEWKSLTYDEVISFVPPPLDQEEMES

EEF2K (human) = EEF2K (human) (UniProt O00418)
HIPK3 (human) = HIPK3 (human) (UniProt Q9H422)
MARK3 (human) = MARK3 (human) (UniProt P27448)
Sequence of MARK3 (human) (P27448 whole entry, looked up): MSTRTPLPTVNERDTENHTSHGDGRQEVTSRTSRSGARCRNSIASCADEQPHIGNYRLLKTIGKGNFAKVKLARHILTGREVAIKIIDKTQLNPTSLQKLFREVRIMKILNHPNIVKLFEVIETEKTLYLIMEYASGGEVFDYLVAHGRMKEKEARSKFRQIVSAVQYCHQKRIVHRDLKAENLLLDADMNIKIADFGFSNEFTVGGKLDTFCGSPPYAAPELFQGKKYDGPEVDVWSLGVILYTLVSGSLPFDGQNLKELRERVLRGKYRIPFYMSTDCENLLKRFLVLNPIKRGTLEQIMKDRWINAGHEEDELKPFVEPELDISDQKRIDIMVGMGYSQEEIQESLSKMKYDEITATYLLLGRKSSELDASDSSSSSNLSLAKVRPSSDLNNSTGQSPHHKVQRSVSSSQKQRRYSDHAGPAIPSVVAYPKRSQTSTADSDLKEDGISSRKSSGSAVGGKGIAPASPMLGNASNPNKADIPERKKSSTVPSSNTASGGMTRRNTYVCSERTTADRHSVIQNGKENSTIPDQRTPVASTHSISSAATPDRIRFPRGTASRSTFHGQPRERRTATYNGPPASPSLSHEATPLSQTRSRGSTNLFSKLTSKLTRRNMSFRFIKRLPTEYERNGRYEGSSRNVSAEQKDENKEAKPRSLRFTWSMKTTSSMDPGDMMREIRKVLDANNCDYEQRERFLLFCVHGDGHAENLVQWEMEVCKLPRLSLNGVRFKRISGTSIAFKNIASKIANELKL

DYRK3 (human) = DYRK3 (human) (UniProt O43781)
EPHB3 (human) = EPHB3 (human) (UniProt P54753)
MAP3K9 (human) = MAP3K9 (human) (UniProt P80192)
MAPKAPK5 (human) = MAPKAPK5 (human) (UniProt Q8IW41)
Sequence of MAPKAPK5 (human) (Q8IW41 whole entry, looked up): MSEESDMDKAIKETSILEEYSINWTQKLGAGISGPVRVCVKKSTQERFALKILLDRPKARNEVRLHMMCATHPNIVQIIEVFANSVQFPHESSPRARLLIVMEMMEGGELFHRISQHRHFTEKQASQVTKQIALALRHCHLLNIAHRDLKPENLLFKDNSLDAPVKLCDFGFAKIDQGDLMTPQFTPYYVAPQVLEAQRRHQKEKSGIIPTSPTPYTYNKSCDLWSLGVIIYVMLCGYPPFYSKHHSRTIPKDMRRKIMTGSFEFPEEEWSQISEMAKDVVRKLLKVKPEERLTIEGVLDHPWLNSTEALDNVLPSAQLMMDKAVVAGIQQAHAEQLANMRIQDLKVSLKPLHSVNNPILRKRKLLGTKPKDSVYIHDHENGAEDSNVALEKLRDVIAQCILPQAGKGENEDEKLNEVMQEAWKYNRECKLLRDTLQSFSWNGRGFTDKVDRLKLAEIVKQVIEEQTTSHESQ

PAK4 (human) = PAK4 (human) (UniProt O96013)
PAK6 (human) = PAK6 (human) (UniProt Q9NQU5)
ERBB4 (human) = ERBB4 (human) (UniProt Q15303)
DYRK2 (human) = DYRK2 (human) (UniProt Q92630)
EPHB1 (human) = EPHB1 (human) (UniProt P54762)
Sequence of EPHB1 (human) (P54762 whole entry, looked up): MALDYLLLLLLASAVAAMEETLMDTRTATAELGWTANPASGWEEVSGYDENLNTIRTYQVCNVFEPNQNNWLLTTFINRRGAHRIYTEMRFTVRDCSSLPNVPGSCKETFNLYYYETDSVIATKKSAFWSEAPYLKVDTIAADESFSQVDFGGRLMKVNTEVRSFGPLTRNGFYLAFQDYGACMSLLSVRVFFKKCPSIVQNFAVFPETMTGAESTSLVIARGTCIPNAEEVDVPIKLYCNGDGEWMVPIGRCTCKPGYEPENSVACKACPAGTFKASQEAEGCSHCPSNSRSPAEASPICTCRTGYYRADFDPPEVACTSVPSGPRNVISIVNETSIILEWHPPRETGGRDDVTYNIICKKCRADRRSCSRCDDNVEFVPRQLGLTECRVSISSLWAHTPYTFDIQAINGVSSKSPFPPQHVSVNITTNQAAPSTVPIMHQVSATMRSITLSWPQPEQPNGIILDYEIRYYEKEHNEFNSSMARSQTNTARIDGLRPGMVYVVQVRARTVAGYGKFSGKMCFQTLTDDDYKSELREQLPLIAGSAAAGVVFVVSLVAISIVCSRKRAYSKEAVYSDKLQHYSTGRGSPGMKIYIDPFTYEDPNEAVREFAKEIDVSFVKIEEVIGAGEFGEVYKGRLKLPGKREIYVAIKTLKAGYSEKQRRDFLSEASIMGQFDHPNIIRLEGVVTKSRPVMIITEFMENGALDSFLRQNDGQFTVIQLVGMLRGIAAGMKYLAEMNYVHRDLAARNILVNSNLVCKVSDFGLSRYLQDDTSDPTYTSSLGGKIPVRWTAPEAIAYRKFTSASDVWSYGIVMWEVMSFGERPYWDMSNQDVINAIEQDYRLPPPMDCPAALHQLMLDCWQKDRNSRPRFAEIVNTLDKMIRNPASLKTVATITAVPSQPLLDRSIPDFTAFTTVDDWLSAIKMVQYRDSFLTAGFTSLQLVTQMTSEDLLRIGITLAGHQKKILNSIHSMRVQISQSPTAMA

MAP2K6 (human) = MAP2K6 (human) (UniProt P52564)
MARK1 (human) = MARK1 (human) (UniProt Q9P0L2)
CSNK2A1 (human) = CSNK2A1 (human) (UniProt P68400)
Sequence of CSNK2A1 (human) (P68400 whole entry, looked up): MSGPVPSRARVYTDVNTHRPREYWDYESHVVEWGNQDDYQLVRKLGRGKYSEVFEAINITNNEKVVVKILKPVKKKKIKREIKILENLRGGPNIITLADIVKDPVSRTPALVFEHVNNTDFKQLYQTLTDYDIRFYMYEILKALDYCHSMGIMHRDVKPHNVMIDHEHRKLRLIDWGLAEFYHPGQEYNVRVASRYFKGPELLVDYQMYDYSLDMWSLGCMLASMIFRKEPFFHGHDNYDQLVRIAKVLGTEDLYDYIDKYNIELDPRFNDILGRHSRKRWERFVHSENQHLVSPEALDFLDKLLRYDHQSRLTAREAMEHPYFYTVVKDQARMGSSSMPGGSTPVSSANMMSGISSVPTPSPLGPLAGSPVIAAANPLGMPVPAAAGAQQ

DYRK1A (human) = DYRK1A (human) (UniProt Q13627)

FC(F)(F)c1ccc(-c2ccc(Oc3cncc4sc(-c5nn[nH]n5)cc34)cc2)cc1 showed a residual activity (PAK7 (human); compound 1.0 µM) of 103%, a residual activity (PAK7 (human); compound 10.0 µM) of 94% and a residual activity ([1]; compound 1.0 µM) of 99%. For the same compound, the residual activity ([1]; compound 10.0 µM) was 73%, the residual activity (RPS6KA5 KD1 KD2 (human); compound 1.0 µM) was 90% and the residual activity (RPS6KA5 KD1 KD2 (human); compound 10.0 µM) was 22%. It also gave a residual activity (IKBKE (human); compound 1.0 µM) of 109%, a residual activity (IKBKE (human); compound 10.0 µM) of 60% and a residual activity (EPHA2 (human); compound 1.0 µM) of 126%. It also gave a residual activity (EPHA2 (human); compound 10.0 µM) of 94%, a residual activity (HIPK1 (human); compound 1.0 µM) of 65% and a residual activity (HIPK1 (human); compound 10.0 µM) of 12%. For the same compound, the residual activity (HIPK2 (human); compound 1.0 µM) was 22%, the residual activity (HIPK2 (human); compound 10.0 µM) was 11% and the residual activity (LCK (mouse); compound 1.0 µM) was 100%. It also gave a residual activity (LCK (mouse); compound 10.0 µM) of 98%, a residual activity (MAPK11 (human); compound 1.0 µM) of 102% and a residual activity (MAPK11 (human); compound 10.0 µM) of 100%. It also gave a residual activity (ROCK2 (rat); compound 1.0 µM) of 90%, a residual activity (ROCK2 (rat); compound 10.0 µM) of 93% and a residual activity (MAPK13 (human); compound 1.0 µM) of 113%. It also gave a residual activity (MAPK13 (human); compound 10.0 µM) of 77%, a residual activity (NUAK1 (human); compound 1.0 µM) of 128% and a residual activity (NUAK1 (human); compound 10.0 µM) of 88%. It also gave a residual activity (PRKCZ (human); compound 1.0 µM) of 126%, a residual activity (PRKCZ (human); compound 10.0 µM) of 60% and a residual activity (DAPK1 (human); compound 1.0 µM) of 47%. It also gave a residual activity (DAPK1 (human); compound 10.0 µM) of 17%, a residual activity (NEK6 (human); compound 1.0 µM) of 93% and a residual activity (NEK6 (human); compound 10.0 µM) of 83%. For the same compound, the residual activity (BTK (human); compound 1.0 µM) was 98%, the residual activity (BTK (human); compound 10.0 µM) was 84% and the residual activity (MST4 (human); compound 1.0 µM) was 118%. It also gave a residual activity (MST4 (human); compound 10.0 µM) of 71%, a residual activity (TAOK1 (human); compound 1.0 µM) of 65% and a residual activity (TAOK1 (human); compound 10.0 µM) of 30%. For the same compound, the residual activity (CaMK1 (human); compound 1.0 µM) was 93%, the residual activity (CaMK1 (human); compound 10.0 µM) was 73% and the residual activity (MAPK14 (human); compound 1.0 µM) was 102%. It also gave a residual activity (MAPK14 (human); compound 10.0 µM) of 107%, a residual activity (EEF2K (human); compound 1.0 µM) of 106% and a residual activity (EEF2K (human); compound 10.0 µM) of 80%. It also gave a residual activity (HIPK3 (human); compound 1.0 µM) of 63%, a residual activity (HIPK3 (human); compound 10.0 µM) of 10% and a residual activity (MARK3 (human); compound 1.0 µM) of 100%. For the same compound, the residual activity (MARK3 (human); compound 10.0 µM) was 51%, the residual activity (DYRK3 (human); compound 1.0 µM) was 18% and the residual activity (DYRK3 (human); compound 10.0 µM) was 3%. The residual activity (EPHB3 (human); compound 1.0 µM) was 122%, the residual activity (EPHB3 (human); compound 10.0 µM) was 104% and the residual activity (MAP3K9 (human); compound 1.0 µM) was 126%. For the same compound, the residual activity (MAP3K9 (human); compound 10.0 µM) was 91%, the residual activity (MAPKAPK5 (human); compound 1.0 µM) was 110% and the residual activity (MAPKAPK5 (human); compound 10.0 µM) was 67%. For the same compound, the residual activity (PAK4 (human); compound 1.0 µM) was 121%, the residual activity (PAK4 (human); compound 10.0 µM) was 97% and the residual activity (PAK6 (human); compound 1.0 µM) was 121%. For the same compound, the residual activity (PAK6 (human); compound 10.0 µM) was 110%, the residual activity (ERBB4 (human); compound 1.0 µM) was 94% and the residual activity (ERBB4 (human); compound 10.0 µM) was 89%. For the same compound, the residual activity (DYRK2 (human); compound 1.0 µM) was 16%, the residual activity (DYRK2 (human); compound 10.0 µM) was 3% and the residual activity (EPHB1 (human); compound 1.0 µM) was 108%. It also gave a residual activity (EPHB1 (human); compound 10.0 µM) of 100%, a residual activity (MAP2K6 (human); compound 1.0 µM) of 94% and a residual activity (MAP2K6 (human); compound 10.0 µM) of 100%. It also gave a residual activity (MARK1 (human); compound 1.0 µM) of 99%, a residual activity (MARK1 (human); compound 10.0 µM) of 72% and a residual activity (CSNK2A1 (human); compound 1.0 µM) of 20%. It also gave a residual activity (CSNK2A1 (human); compound 10.0 µM) of 4%, a residual activity (DYRK1A (human); compound 1.0 µM) of 27% and a residual activity (DYRK1A (human); compound 10.0 µM) of 5%.

From the kinase profiling compilation of Christmann-Franck et al. (2016)
